# Like-named read-outs stand apart in the source and are kept apart here.
# Experiments:
# C57/bl6 mice = assay: In vivo C57/bl6 Mouse CD69 Stimulation Assay; settings: for CD69 expression versus parent compound: 60 μg dose; for stimulation of CD69 in splenocytes: 24 h post-injection; for bolus toxicity: highest dosage
# Procedure: In vivo C57/bl6 Mouse CD69 Stimulation Assay: C57/bl6 mice were obtained from the UCLA Department of Radiation Oncology. Prodrugs of the disclosure were administered intravenously via retro-orbital injection. At 24 h post-injection, mice were sacrificed and the spleens isolated. Spleens were disaggregated by forcing tissue through a steel mesh and then filtered through a 40 μm filter to produce a single-cell suspension. These cells were then stained for flow cytometry to analyze surface expression of relevant markers. Cells were first suspended in 50 μL of a 1:1 mix of 1× PBS and human AB serum (Sigma) and then stained with a combination of anti-mouse CD3-fluorescein isothiocyanate (eBioscience), CD69-phycoerythrin (eBioscience), and CD4-peridinin chlorophyll protein (eBioscience). Following antibody addition, the mixture was incubated at 4° C. for 15 min. The cells were then washed, resuspended in 1× PBS containing 2% paraformaldehyde, and stored at 4° C. Fixed cells were analyzed using an LSRFortessa (BD Biosciences). The resultant list mode files were processed using FlowJo software (version 7.6).
# porcine liver esterase = assay: Porcine Liver Esterase Assay; type: in vitro ADME; settings: pig; 60 units of porcine liver esterase, HEPES buffered saline, pH 7.4, 10% DMSO, 37° C.; read-out: Esterase stability (t1/2)* (converted)
# Procedure: (§1) Hydrolytic Stability Assay: A solution of 400 μM of parent compound or prodrug derivative with 2,4,6-trimethylphenol (800 μM, 107 μg) in HEPES buffered saline, pH 7.4, with 10% DMSO (total volume 1000 μL) was incubated at 37° C. At appropriate time points, 100 μL was removed, flash frozen, and lyophilized. The lyophilized material was then diluted with 100 μL acetonitrile, filtered, and analyzed by analytical HPLC. The degree of degradation was calculated relative to the area under the curve of the compound of interest compared to the internal standard, 2,4,6-trimethylphenol, as shown in Table 1. Porcine Liver Esterase Assay: A solution of 400 μM of parent compound or prodrug derivative with 2,4,6-trimethylphenol (800 μM, 160 μg) and 60 units of porcine liver esterase in HEPES buffered saline, pH 7.4, with 10% DMSO (total volume 1500 μL) was incubated at 37° C. At appropriate time points, 150 μL was removed, flash frozen, and centrifuged at 10,000 rpm. 140 μL of the supernatant was removed and lyophilized. The lyophilized material was then diluted with 100 μL acetonitrile, filtered, and analyzed by analytical HPLC. The degree of esterase cleavage was calculated relative to the area under the curve of the compound of interest compared to the internal standard, 2,4,6-trimethylphenol.
# Novel PKCδ = biological target: T1, Novel PKCδ (Homo sapiens, UniProt Q05655); assay: PKC binding affinity, competitive radioligand assay against 3H-PDBu
# T1 construct: a specific full-length PKC isoform was combined with Tris-HCl, KCl, CaCl2
# Procedure: (§2) Testing of Compounds for PKC Binding Affinity: A heterogeneous competitive radioligand assay against ^3H-phorbol-12,13-dibutyrate (^3H-PDBu) was used to generate PKC binding constant (Ki) values. In a typical assay, a specific full-length PKC isoform was combined with Tris-HCl, KCl, CaCl2, bovine serum albumin, water, and phosphatidyl serine. Serial dilutions of the respective analog were added to the PKC mixture; in addition, a solution of a compound with known PKC binding affinity and a solution containing no sample were added for reference.
# (§3) After addition of [^3H]PDBu, these samples were incubated, filtered through filters previously wetted with polyethyleneimine and the filters were washed with Tris buffer. The filters were then placed into scintillation vials which were then filled with Bio-Safe scintillation fluid and were measured for radioactivity using a Beckman LS 6000SC scintillation counter. Counts per minute (cpm) were averaged for each triplicate dilution. The data was then plotted (cpm vs. log(concentration)) using Prism® by GraphPad Software and an IC50 was determined using that program's built-in one-site competition least squares regression function. Ki values were calculated by the equation: Ki=IC50/(1+[^3H-PDBu])/KD of ^3H-PDBu).
# [1] = Hydrolytic Stability Assay; type: physicochemical; settings: buffer, HEPES buffered saline, pH 7.4, 10% DMSO, 37° C.; for half-life at 400 μM: read-out: Hydrolytic stability (t1/2); for half-life: read-out: Hydrolytic stability (t1/2) (converted)
# Procedure: as §1
# Conventional PKCβI = biological target: T2, Conventional PKCβI (Homo sapiens, UniProt P05771); assay: PKC binding affinity, competitive radioligand assay against 3H-PDBu
# T2 construct: a specific full-length PKC isoform was combined with Tris-HCl, KCl, CaCl2
# Procedure: as §2, §3
# [2] = tested on: T-lymphoblastoid CEM-SS and C-8166 cells; settings: CEM-SS and C-8166 cell lines; cited from earlier work
# PKC = biological target: T3, PKC; assay: Saturation binding of 3H-PDBu; settings: batch-to-batch variability
# T3 construct: rows headed: KD of 3H-PDBu
# [3] = intravenous retro-orbital injection
# [4] = vs 3H-PDBu, read-out: PKC binding affinity, Ki, Novel PKCδ
# T1 sequence (Q05655 whole entry, canonical isoform): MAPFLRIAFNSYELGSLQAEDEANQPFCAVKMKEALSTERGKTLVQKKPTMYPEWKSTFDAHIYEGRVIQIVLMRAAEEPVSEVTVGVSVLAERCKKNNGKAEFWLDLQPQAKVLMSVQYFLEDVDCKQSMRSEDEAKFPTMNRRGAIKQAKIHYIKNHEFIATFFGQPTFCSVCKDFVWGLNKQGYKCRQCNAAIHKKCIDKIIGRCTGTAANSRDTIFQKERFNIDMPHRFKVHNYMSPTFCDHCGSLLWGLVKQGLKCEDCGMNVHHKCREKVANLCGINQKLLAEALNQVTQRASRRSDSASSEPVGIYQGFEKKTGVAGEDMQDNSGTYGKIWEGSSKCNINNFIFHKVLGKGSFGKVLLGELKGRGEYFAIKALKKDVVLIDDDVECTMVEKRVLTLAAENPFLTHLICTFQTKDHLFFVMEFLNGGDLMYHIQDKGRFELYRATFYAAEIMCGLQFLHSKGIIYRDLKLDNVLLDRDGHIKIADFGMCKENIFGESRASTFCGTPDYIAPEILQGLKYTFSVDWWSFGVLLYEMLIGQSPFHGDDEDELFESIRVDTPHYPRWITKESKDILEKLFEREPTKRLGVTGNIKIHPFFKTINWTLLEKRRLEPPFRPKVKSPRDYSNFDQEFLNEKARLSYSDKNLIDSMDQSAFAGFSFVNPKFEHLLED
# T2 sequence (P05771 whole entry, canonical isoform): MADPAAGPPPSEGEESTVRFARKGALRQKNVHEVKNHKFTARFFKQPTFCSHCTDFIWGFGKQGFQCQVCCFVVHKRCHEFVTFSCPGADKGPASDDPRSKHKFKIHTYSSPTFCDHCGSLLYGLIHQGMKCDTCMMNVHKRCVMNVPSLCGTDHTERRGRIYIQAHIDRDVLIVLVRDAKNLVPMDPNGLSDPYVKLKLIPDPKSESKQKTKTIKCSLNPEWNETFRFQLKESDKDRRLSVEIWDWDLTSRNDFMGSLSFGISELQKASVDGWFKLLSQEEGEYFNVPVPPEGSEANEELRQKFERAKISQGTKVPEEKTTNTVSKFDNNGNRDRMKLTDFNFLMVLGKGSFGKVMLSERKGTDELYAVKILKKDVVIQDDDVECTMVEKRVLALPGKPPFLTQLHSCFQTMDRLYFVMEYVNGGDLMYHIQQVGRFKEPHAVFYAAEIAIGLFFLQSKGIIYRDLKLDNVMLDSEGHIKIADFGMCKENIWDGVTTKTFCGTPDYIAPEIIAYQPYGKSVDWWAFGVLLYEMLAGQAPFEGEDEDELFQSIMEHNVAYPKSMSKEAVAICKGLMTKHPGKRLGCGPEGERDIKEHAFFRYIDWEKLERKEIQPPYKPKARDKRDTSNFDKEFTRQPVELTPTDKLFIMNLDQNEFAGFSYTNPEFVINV
molecule,measurement,setting,value
"CC1=C[C@H]2[C@@]3(O)[C@H](C)C[C@]4(OC(=O)CC56CC7CC(CC(C7)C5)C6)[C@H]([C@@H]3C=C(CO)C[C@]2(O)C1=O)C4(C)C [Compound 3, adamantyl prostratin]",survival of mice,C57/bl6 mice; [3],one mouse casualty at 60 pg and no survival beyond that dose
same,potency compared with prostratin,"C57/bl6 mice; intravenous retro-orbital injection, 24 h",higher potency than prostratin
CC(=O)OCC1=C[C@H]2[C@@H]3C(C)(C)[C@]3(OC(=O)CC34CC5CC(CC(C5)C3)C4)C[C@@H](C)[C@]2(O)[C@@H]2C=C(C)C(=O)[C@@]2(O)C1 [Compound 4a],half-life at 400 μM,porcine liver esterase,1620 ± 180 min
same,Ki,Novel PKCδ,9400 nM
same,half-life at 400 μM,[1],> 7 days
same,CD69 expression versus parent compound,C57/bl6 mice,more moderate levels of activation
same,stimulation of CD69 in splenocytes,C57/bl6 mice,strong stimulation of CD69 in splenocytes
same,bolus toxicity,C57/bl6 mice,no bolus toxicity on mice even at the highest dosage
same,survival of mice,C57/bl6 mice; [3],survived
CCCCCC(=O)OCC1=C[C@H]2[C@@H]3C(C)(C)[C@]3(OC(=O)CC34CC5CC(CC(C5)C3)C4)C[C@@H](C)[C@]2(O)[C@@H]2C=C(C)C(=O)[C@@]2(O)C1 [Compound 4b],half-life at 400 μM,porcine liver esterase,144 ± 30 min
same,Ki,Novel PKCδ,> 2500 nM
same,Ki,Conventional PKCβI,> 2500 nM
same,half-life at 400 μM,[1],> 74 days
CCCCCCCCCC(=O)OCC1=C[C@H]2[C@@H]3C(C)(C)[C@]3(OC(=O)CC34CC5CC(CC(C5)C3)C4)C[C@@H](C)[C@]2(O)[C@@H]2C=C(C)C(=O)[C@@]2(O)C1 [Compound 4c],half-life at 400 μM,porcine liver esterase,1140 ± 120 min
same,Ki,Novel PKCδ,9000 nM
same,half-life at 400 μM,[1],> 7 days
same,CD69 expression versus parent compound,C57/bl6 mice,comparable
same,stimulation of CD69 in splenocytes,C57/bl6 mice,strong stimulation of CD69 in splenocytes
same,bolus toxicity,C57/bl6 mice,no bolus toxicity on mice even at the highest dosage
same,survival of mice,C57/bl6 mice; [3],survived
CC1=C[C@H]2[C@@]3(O)[C@H](C)C[C@]4(OC(=O)CC56CC7CC(CC(C7)C5)C6)[C@H]([C@@H]3C=C(COC(=O)c3ccccc3)C[C@]2(O)C1=O)C4(C)C [Compound 4d],half-life at 400 μM,porcine liver esterase,1920 ± 540 min
same,Ki,Novel PKCδ,> 2500 nM
same,Ki,Conventional PKCβI,> 500 nM
same,half-life at 400 μM,[1],> 7 days
CCOC(=O)OCC1=C[C@H]2[C@@H]3C(C)(C)[C@]3(OC(=O)CC34CC5CC(CC(C5)C3)C4)C[C@@H](C)[C@]2(O)[C@@H]2C=C(C)C(=O)[C@@]2(O)C1 [Compound 4e],half-life at 400 μM,porcine liver esterase,288 ± 36 min
same,Ki,Novel PKCδ,380 nM
same,half-life at 400 μM,[1],> 7 days
CCCCCCCCNC(=O)OCC1=C[C@H]2[C@@H]3C(C)(C)[C@]3(OC(=O)CC34CC5CC(CC(C5)C3)C4)C[C@@H](C)[C@]2(O)[C@@H]2C=C(C)C(=O)[C@@]2(O)C1 [Compound 4f],half-life at 400 μM,porcine liver esterase,4260 ± 780 min
same,Ki,Novel PKCδ,2900 nM
same,half-life at 400 μM,[1],> 7 days
"CC1=C[C@]23C(=O)[C@@H](C=C(CO)[C@@H](O)[C@]2(O)[C@H]1OC(=O)c1ccc(Br)cc1C)[C@H]1[C@@H](C[C@H]3C)C1(C)C [Compound 6, o-methyl-p-bromo-benzoate ingenol ester]",half-life,porcine liver esterase,60 min
same,Ki,Novel PKCδ; [4],1.1 nM
same,Ki,"Conventional PKCβI; vs 3H-PDBu, read-out: PKC binding affinity, Ki, Conventional PKCβI",0.85 nM
same,half-life,[1],1080 min
CCCCCCCCCC(=O)OCC1=C[C@@H]2C(=O)[C@]3(C=C(C)[C@H](OC(=O)c4ccc(Br)cc4C)[C@@]3(O)[C@@H]1O)[C@H](C)C[C@@H]1[C@H]2C1(C)C [Compound 7],half-life,porcine liver esterase,120 min
same,Ki,Novel PKCδ; [4],11000 nM
same,half-life,[1],120 min
CC(=O)O[C@@]12C[C@@H](C)[C@@]3(O)[C@@H](C=C(CO)C[C@]4(O)C(=O)C(C)=C[C@@H]34)[C@@H]1C2(C)C [prostratin],concentration restoring cell viability to the level of uninfected controls,[2],approximately 1 μM
same,no sign of cytotoxicity up to,[2],about 25 μM
"^3H-phorbol-12,13-dibutyrate [^3H-PDBu]",Kd,PKC,1.55 to 4.4 nM

# From US11370743B2, “Prodrug derivatives of protein kinase C modulators” (priority 2017, dated 2022)
